The experiment deals with PLK1 (Homo sapiens, UniProt P53350). Description: PLK1 Inhibition Assay I (radioactive-phosphate incorporation). The format is biochemical. Particulars: Ki(app); PLK1 Inhibition Assay I or II (table does not say which). Put shortly: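 Ki(app) values came from non-linear regression of initial rates after background subtraction, with phosphopeptide measured by phosphocellulose filter binding and scintillation counting. PLK1 at 2 nM was preincubated with compound (typically from 10 μM, 2-fold dilutions) for 10 min, then run 240 min at 25° C with 350 μM [γ-33P]ATP and 450 μM peptide substrate in HEPES pH 7.5 buffer.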
Sequence of PLK1 (P53350 whole entry): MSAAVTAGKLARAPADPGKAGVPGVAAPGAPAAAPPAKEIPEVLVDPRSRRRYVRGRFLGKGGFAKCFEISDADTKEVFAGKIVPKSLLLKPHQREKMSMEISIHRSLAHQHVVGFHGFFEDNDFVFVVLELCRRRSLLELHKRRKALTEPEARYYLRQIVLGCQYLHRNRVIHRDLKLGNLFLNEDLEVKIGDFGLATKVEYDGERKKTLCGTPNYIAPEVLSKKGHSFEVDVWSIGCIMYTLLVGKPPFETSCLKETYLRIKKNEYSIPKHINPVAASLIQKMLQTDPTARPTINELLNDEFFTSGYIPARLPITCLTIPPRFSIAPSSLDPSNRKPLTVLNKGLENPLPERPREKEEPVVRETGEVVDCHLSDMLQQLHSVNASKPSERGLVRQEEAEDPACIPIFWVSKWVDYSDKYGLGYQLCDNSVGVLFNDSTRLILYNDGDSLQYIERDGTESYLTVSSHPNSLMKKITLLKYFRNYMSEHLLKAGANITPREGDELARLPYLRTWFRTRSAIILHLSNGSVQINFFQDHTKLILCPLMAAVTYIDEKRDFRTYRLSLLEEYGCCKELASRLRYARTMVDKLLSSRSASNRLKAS
With `N#Cc1cnc(NCc2ccccn2)nc1-c1c[nH]c2ncc(C(F)(F)F)cc12` [Compound I-64, 2-(pyridin-2-ylmethylamino)-4-(5-(trifluoromethyl)-1H-pyrrolo[2,3-b]pyridin-3-yl)pyrimidine-5-carbonitrile], the Ki was over 40 nM.

On to `CC(Nc1ncc(C#N)c(-c2c[nH]c3ncc(C(F)(F)F)cc23)n1)c1ccc(N2CC(O)C2)nc1` (centres unmarked) [Compound I-201, 2-(1-(6-(3-hydroxyazetidin-1-yl)pyridin-3-yl)ethylamino)-4-(5-(trifluoromethyl)-1H-pyrrolo[2,3-b]pyridin-3-yl)pyrimidine-5-carbonitrile], for which the Ki was under 3 nM.

Regarding `CCC(=O)N1CCC(C(C)Nc2ncc(C#N)c(-c3c[nH]c4ncc(C(F)(F)F)cc34)n2)CC1` (centres unmarked) [Compound I-187, 2-(1-(1-propionylpiperidin-4-yl)ethylamino)-4-(5-(trifluoromethyl)-1H-pyrrolo[2,3-b]pyridin-3-yl)pyrimidine-5-carbonitrile], the Ki is under 3 nM.

For the compound `CCC(Nc1ncc(C#N)c(-c2c[nH]c3ncc(C(F)(F)F)cc23)n1)C1CCN(CC#N)CC1` (centres unmarked) [Compound I-173, 2-(1-(1-(cyanomethyl)piperidin-4-yl)propylamino)-4-(5-(trifluoromethyl)-1H-pyrrolo[2,3-b]pyridin-3-yl)pyrimidine-5-carbonitrile], the Ki is under 3 nM.

Regarding `N#Cc1cnc(NCc2ccc(-n3cncn3)cc2)nc1-c1c[nH]c2ncc(C(F)(F)F)cc12` [Compound I-55, 2-(4-(1H-1,2,4-triazol-1-yl)benzylamino)-4-(5-(trifluoromethyl)-1H-pyrrolo[2,3-b]pyridin-3-yl)pyrimidine-5-carbonitrile], the Ki is 3 to 40 nM.

In the case of `CN(C)c1ccc(CNc2ncc(C#N)c(-c3c[nH]c4ncc(C(F)(F)F)cc34)n2)cc1` [Compound I-59, 2-(4-(dimethylamino)benzylamino)-4-(5-(trifluoromethyl)-1H-pyrrolo[2,3-b]pyridin-3-yl)pyrimidine-5-carbonitrile], the Ki lay within 3 to 40 nM.

`COC(=O)Nc1ccc([C@@H](C)Nc2ncc(C#N)c(-c3c[nH]c4ncc(C(F)(F)F)cc34)n2)cc1` [Compound I-141, methyl 4-((1R)-1-(5-cyano-4-(5-(trifluoromethyl)-1H-pyrrolo[2,3-b]pyridin-3-yl)pyrimidin-2-ylamino)ethyl)phenylcarbamate]: the Ki is under 3 nM.

With `C[C@H](Nc1ncc(C#N)c(-c2c[nH]c3ncc(Cl)cc23)n1)C(=O)NCC(F)(F)F` [IA-6, (2S)-2-(4-(5-chloro-1H-pyrrolo{2,3-b]pyridin-3-yl)-5-cyanopyrimidin-2-ylamino)-N-(2,2,2-trifluoroethyl)propanamide], the Ki is over 40 nM.

`COc1ccccc1Sc1ncc(C#N)c(-c2c[nH]c3ncc(C(F)(F)F)cc23)n1` [II-14, 2-(2-methoxyphenylthio)-4-(5-(trifluoromethyl)-1H-pyrrolo[2,3-b]pyridin-3-yl)pyrimidine-5-carbonitrile]: the Ki was over 40 nM.

Consider `CC(C)(C)Nc1ncc(C#N)c(-c2c[nH]c3ncc(C(F)(F)F)cc23)n1` [Compound I-4, 2-(tert-butylamino)-4-(5-(trifluoromethyl)-1H-pyrrolo[2,3-b]pyridin-3-yl)pyrimidine-5-carbonitrile], for which the Ki is over 40 nM.

As to `N#Cc1cnc(NCc2ccc(O)cc2)nc1-c1c[nH]c2ncc(C(F)(F)F)cc12` [Compound I-90, 4-(5-(1,1-Trifluoromethyl)-1H-pyrrolo[2,3-b]pyridin-3-yl)-2-(4-hydroxybenzylamino)pyrimidine-5-carbonitrile], the Ki lay within 3 to 40 nM.

Regarding `N#Cc1cnc(NCc2ccc(Cl)nc2)nc1-c1c[nH]c2ncc(C(F)(F)F)cc12` [Compound I-50, 2-((6-chloropyridin-3-yl)methylamino)-4-(5-(trifluoromethyl)-1H-pyrrolo[2,3-b]pyridin-3-yl)pyrimidine-5-carbonitrile], the Ki is over 40 nM.

Turning to `CN(Cc1ccccc1)c1ncc(C#N)c(-c2c[nH]c3ncc(C(F)(F)F)cc23)n1` [Compound I-8, 2-(benzyl(methyl)amino)-4-(5-(trifluoromethyl)-1H-pyrrolo[2,3-b]pyridin-3-yl)pyrimidine-5-carbonitrile], the Ki was over 40 nM.

With `N#Cc1cnc(Oc2ccccc2)nc1-c1c[nH]c2ncc(C(F)(F)F)cc12` [EG4, 2-Phenoxy-4-(5-(trifluoromethyl)-1H-pyrrolo[2,3-b]pyridin-3-yl)pyrimidine-5-carbonitrile], the Ki is over 40 nM.

For `CCC(Nc1ncc(C#N)c(-c2c[nH]c3ncc(C(F)(F)F)cc23)n1)C1CCN(S(=O)(=O)CC)CC1` (centres unmarked) [Compound I-175, 2-(1-(1-(ethylsulfonyl)piperidin-4-yl)propylamino)-4-(5-(trifluoromethyl)-1H-pyrrolo[2,3-b]pyridin-3-yl)pyrimidine-5-carbonitrile], the Ki is under 3 nM.

With `N#Cc1cnc(NC2CCCCC2)nc1-c1c[nH]c2ncc(C(F)(F)F)cc12` [Compound I-10, 2-(cyclohexylamino)-4-(5-(trifluoromethyl)-1H-pyrrolo[2,3-b]pyridin-3-yl)pyrimidine-5-carbonitrile], the Ki lay within 3 to 40 nM.

Regarding `N#Cc1cnc(Sc2ccc(Cl)cc2)nc1-c1c[nH]c2ncc(C(F)(F)F)cc12` [II-2, 2-(4-chlorophenylthio)-4-(5-(trifluoromethyl)-1H-pyrrolo[2,3-b]pyridin-3-yl)pyrimidine-5-carbonitrile], the Ki was over 40 nM.

Consider `C[C@@H](Nc1ncc(C#N)c(-c2c[nH]c3ncc(C(F)(F)F)cc23)n1)C(=O)NC1CCCC1O` (stereo partly drawn) [IA-13, (2R)-2-(5-cyano-4-(5-(trifluoromethyl)-1H-pyrrolo[2,3-b]pyridin-3-yl)pyrimidin-2-ylamino)-N-(2-hydroxycyclopentyl)propanamide], for which the Ki is 3 to 40 nM.

For the compound `CC(C)(Nc1ncc(C#N)c(-c2c[nH]c3ncc(Cl)cc23)n1)C(=O)NCC(F)(F)F` [IA-11, 2-(4-(5-chloro-1H-pyrrolo[2,3-b]pyridin-3-yl)-5-cyanopyrimidin-2-ylamino)-2-methyl-N-(2,2,2-trifluoroethyl)propanamide], the Ki was in the range of 3 to 40 nM.

For the compound `CCC(Nc1ncc(C#N)c(-c2c[nH]c3ncc(C(F)(F)F)cc23)n1)c1ccccc1` (centres unmarked) [Compound I-16, 2-(1-phenylpropylamino)-4-(5-(trifluoromethyl)-1H-pyrrolo[2,3-b]pyridin-3-yl)pyrimidine-5-carbonitrile], the Ki lay within 3 to 40 nM.

In the case of `N#Cc1cnc(NCc2cc(F)cc(F)c2)nc1-c1c[nH]c2ncc(C(F)(F)F)cc12` [Compound I-48, 2-(3,5-difluorobenzylamino)-4-(5-(trifluoromethyl)-1H-pyrrolo[2,3-b]pyridin-3-yl)pyrimidine-5-carbonitrile], the Ki is over 40 nM.

Turning to `C[C@@H](Nc1ncc(C#N)c(-c2c[nH]c3ncc(C(F)(F)F)cc23)n1)c1ccc(S(N)(=O)=O)cc1` [Compound I-196, 4-((1R)-1-(5-cyano-4-(5-(trifluoromethyl)-1H-pyrrolo[2,3-b]pyridin-3-yl)pyrimidin-2-ylamino)ethyl)benzenesulfonamide], the Ki is under 3 nM.

In the case of `CC(C)[C@@H](N)C(=O)N1CCC([C@@H](C)Nc2ncc(C#N)c(-c3c[nH]c4ncc(C(F)(F)F)cc34)n2)CC1` [Compound I-229, 2-((R)-1-(1-((R)-2-amino-3-methylbutanoyl)piperidin-4-yl)ethylamino)-4-(5-(trifluoromethyl)-1H-pyrrolo[2,3-b]pyridin-3-yl)pyrimidine-5-carbonitrile], the Ki is under 3 nM.
